From patent US20210069194A1, “COMBINATION THERAPY FOR THE TREATMENT OF CANCER” (MingSight Pharmaceuticals, Inc., priority 2018, published 2021)

Key:
circulating lymphocytes = assay: Peripheral lymphocyte levels in healthy humans, multiple ascending dose study; assay type: in vivo, human; conditions: healthy humans, 50, 100, 150, 200 mg BID, 14 days
Description: Normal, healthy human patients received various doses of Compound A for 14 days of dosing. The dose levels were as follows: cohort 1: 50 mg, BID; cohort 2: 100 mg, BID; cohort 3, 150 mg, BID; and cohort 4,200 mg BID.

[1] = TMD8 mouse xenograph model of DLBCL, body weight; assay type: in vivo, SCID mice; conditions: 120 mg/kg BID
Description: (§1) To test the efficacy of Compound A in vivo, TMD8 cells were grown and subcutaneously injected into SCID mice. Large scale suspension culture of TMD8 cells was performed in T250 flasks, where cells were expanded weekly. Animals (n=24) were inoculated with 10×10^6 cells (10×10^6 cells in 100 μL volume of 50% Matrigel®) subcutaneously in the animal's right flank.

TMD8 cells [2] = assay: Cell proliferation and survival assay (MTT), TMD8; assay type: cell-based, Human; conditions: for Inhibition of cell proliferation and survival: TMD8 cells, MTT, 96 hours
Description: (§2) TMD8 cells were grown in MEM media supplemented with 10% fetal calf serum (FCS), non-essential vitamin mix, and penicillin-streptomycin antibiotics (pen-strep). HBL1 cells were grown in RPMI-1640 media supplemented with 10% FCS and pen-strep. OCI-Ly3 cells were grown in DMEM media with 15% FCS, non-essential vitamin mix, pen-strep, and 25 mM HEPES buffer. Cells were maintained in suspension culture, fed twice weekly, and split 1:3 approximately every two weeks (TMD8, OCI-Ly3) or weekly (HBL1). Cells were cultured and maintained as described above, with cells always fed on the day prior to assay. Proliferation and survival of cells was quantified using an MTT assay kit according to manufacturer's instructions (Cell Proliferation Kit 1, Roche Diagnostics, Cat. No. 11 465 007 001). Experiments were performed in the same media used by each cell type for growth and maintenance. Cells (5×10^4) were plated in 96 well plates and allowed to grow for 96 hours in the presence of inhibitors. After the exposure period was completed, MTT reagent was added for 3-4 hours. The MTT solubilization reagent was then added to stop the reaction and cells were incubated overnight at 37° C. The plate read the next day according to the kit instructions.

[3] = tested on: IL-6 production in HBL1 cells; assay: IL-6 assay (ELISA) in HBL1 cells; assay type: cell-based, Human; conditions: HBL1 cells (activating CD79 mutation), 48 hours, data not shown
TMD8 cells [4] = assay: TMD8 mouse xenograph model of DLBCL, tumor volume; assay type: in vivo, SCID mice; conditions: 120 mg/kg BID
Description: as §1

HBL1 cells = assay: Cell proliferation and survival assay (MTT), HBL1; assay type: cell-based, Human; conditions: 96 hours, data not shown
[5] = tested on: IL-6 production in TMD8 cells; assay: IL-6 assay (ELISA) in TMD8 cells; assay type: cell-based, Human; conditions: for Inhibition of IL-6 production: TMD8 cells (activating CD79 mutation), 48 hours
Description: (§3) TMD8 cells were grown in MEM media supplemented with 10% fetal calf serum (FCS), non-essential vitamin mix, and penicillin-streptomycin antibiotics (pen-strep). HBL1 cells were grown in RPMI-1640 media supplemented with 10% FCS and pen-strep. OCI-Ly3 cells were grown in DMEM media with 15% FCS, non-essential vitamin mix, pen-strep, and 25 mM HEPES buffer. Cells were maintained in suspension culture, fed twice weekly, and split 1:3 approximately every two weeks (TMD8, OCI-Ly3) or weekly (HBL1).
(§4) Cells were harvested via centrifugation and resuspended twice to rinse the media of any IL-6. Cells were then plated in 96 well plates at 5×10^5 cells per well and exposed to increasing concentrations of Compound A, sotrastaurin, or media containing 0.1% DMSO (negative control). For each cell type, experiments were performed in the media used for growth and maintenance. Cells were allowed to grow for 48 hours after plating in the presence of inhibitors. Following compound exposure, cells were pelleted in the 96 well plate, supernatant was removed, and the concentration of IL-6 in the supernatant was determined using R&D Systems Haman IL-6 Quantikine® ELISA Kit (D6050) according to manufacturer's instructions.

Human PKC delta = Human PKC delta (Homo sapiens, UniProt Q05655); assay: PKC isoform inhibition in vitro assay, PKC delta; assay type: biochemical
OCI-Ly3 cells = assay: Cell proliferation and survival assay (MTT), OCI-Ly3; assay type: cell-based, Human; conditions: 96 hours
Description: as §2

[6] = tested on: IL-6 production in OCI-Ly3 cells; assay: IL-6 assay (ELISA) in OCI-Ly3 cells; assay type: cell-based, Human; conditions: OCI-Ly3 cells (no activating CD79 mutation), 48 hours
Description: as §3, §4

Human PKC delta, sequence (Q05655 whole entry, canonical isoform): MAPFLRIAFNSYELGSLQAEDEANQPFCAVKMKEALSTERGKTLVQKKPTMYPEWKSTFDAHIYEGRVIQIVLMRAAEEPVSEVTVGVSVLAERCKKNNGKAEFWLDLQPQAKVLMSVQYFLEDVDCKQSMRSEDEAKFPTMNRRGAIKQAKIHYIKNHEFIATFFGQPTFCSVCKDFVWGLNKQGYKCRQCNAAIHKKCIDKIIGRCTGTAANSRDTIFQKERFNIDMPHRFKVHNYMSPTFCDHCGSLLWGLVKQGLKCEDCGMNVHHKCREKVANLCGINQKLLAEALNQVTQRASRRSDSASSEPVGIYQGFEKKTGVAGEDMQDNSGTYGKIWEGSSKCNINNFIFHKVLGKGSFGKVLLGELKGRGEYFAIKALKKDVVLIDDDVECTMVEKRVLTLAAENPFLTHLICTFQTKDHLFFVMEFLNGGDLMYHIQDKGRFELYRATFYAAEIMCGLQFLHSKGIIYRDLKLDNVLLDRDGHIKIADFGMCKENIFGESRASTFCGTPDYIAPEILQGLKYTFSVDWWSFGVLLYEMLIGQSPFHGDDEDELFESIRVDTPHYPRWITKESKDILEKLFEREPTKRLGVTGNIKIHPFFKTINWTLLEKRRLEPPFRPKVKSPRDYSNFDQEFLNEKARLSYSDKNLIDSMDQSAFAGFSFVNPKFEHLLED

With `Cc1ncc(F)c(Nc2n[nH]c3c2CN(C(=O)N2C[C@@H](C)N(CC4CCOCC4)C[C@@H]2C)C3(C)C)n1` [Compound A, 5-{[(2S,5R)-2,5-Dimethyl-4-(tetrahydro-2H-pyran-4-ylmethyl)piperazin-1-yl]carbonyl}-N-(5-fluoro-2-methylpyrimidin-4-yl)-6,6-dimethyl-1,4,5,6-tetrahydropyrrolo[3,4-c]pyrazol-3-amine] the “Number of circulating lymphocytes” value (circulating lymphocytes) was “dose dependent increase”, the “Mean weight of vehicle treated group greater than Compound A treated animals by” value [1] was 1.8 g and the Body weight change ([1]; day 24-28) was “no increase in body weight”. For the same molecule, the “Potency compared to sotrastaurin, cell proliferation assay” value (TMD8 cells [2]) was “modestly more potent”, the “Inhibition of cell proliferation and survival” value (TMD8 cells [2]) was “dose-dependent inhibition” and the “Inhibition of IL-6 production” value [3] was “dose-dependent inhibition”. The Mean tumor volume (TMD8 cells [4]; study day 20) was 898 mm^3, the Mean tumor volume (TMD8 cells [4]; study day 28) was 970 mm^3 and the “Increase of mean tumor volume” value (TMD8 cells [4]; study days 20 to 28) was 8%. For the same molecule, the “Tumor growth (in words)” value (TMD8 cells [4]; study days 20 to 28) was “no appreciable amounts of tumor growth”, the “Inhibition of cell proliferation and survival” value (HBL1 cells) was “dose-dependent inhibition” and the “Potency compared to sotrastaurin, IL-6 assay” value [5] was “slightly more potent”. The “Inhibition of IL-6 production” value [5] was “dose-dependent inhibition”, the “Inhibition of PKC delta (in words)” value (Human PKC delta) was “does not inhibit PKC delta to any appreciable degree” and the “Inhibition of cell proliferation and survival” value (OCI-Ly3 cells) was “not affected by either compound except at the highest doses tested”. For the same molecule, the “Inhibition of IL-6 production” value [6] was “not affected”.

In the case of `CN1CCN(c2nc(C3=C(c4c[nH]c5ccccc45)C(=O)NC3=O)c3ccccc3n2)CC1` [sotrastaurin, reference compound], the “Inhibition of cell proliferation and survival” value (TMD8 cells [2]) is reported as “dose dependent inhibition”, the “Inhibition of IL-6 production” value [5] is reported as “dose dependent inhibition” and the “Inhibition of cell proliferation and survival” value (OCI-Ly3 cells) is reported as “not affected by either compound except at the highest doses tested”. The “Inhibition of IL-6 production” value [6] was “not affected”.
